Source: patent US20060069132A1, “Azolecarboxamide herbicides” (priority 2004, published 2006)

Columns and labels:
barnyardgrass [1] = assay: Test B pre-/postemergence herbicide test; assay type: in vivo, Echinochloa crus-galli; details: for Barnyardgrass plant response rating: postemergence, visual rating, scale 0 (no effect) to 100 (complete control)
Method in brief: (§1)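 Evaluation is visual, comparing treated with control plants on a scale where 0 means no effect and 100 means full control. Treatments were preemergence, or postemergence on seedlings 2–18 cm tall, and held 13–15 days in the greenhouse.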

Surinam grass = assay: Test B pre-/postemergence herbicide test; assay type: in vivo, Urochloa decumbens; details: for Surinam Grass plant response rating: postemergence, visual rating, scale 0 (no effect) to 100 (complete control)
Method in brief: (§2)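 Flooded paddy rice and barnyardgrass were treated at the 2-leaf stage; upland plantings received compound either on sown seed or on 1- to 4-leaf seedlings. All were kept 13–15 days in a greenhouse and scored visually, 0–100, relative to untreated plants.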

cocklebur = assay: Test B pre-/postemergence herbicide test; assay type: in vivo, Xanthium strumarium; details: for Cocklebur plant response rating: postemergence, visual rating, scale 0 (no effect) to 100 (complete control)
Method in brief: as §1

corn = assay: Test B pre-/postemergence herbicide test; assay type: in vivo, Zea mays; details: for Corn plant response rating: postemergence, visual rating, scale 0 (no effect) to 100 (complete control)
Method in brief: as §2

large crabgrass = assay: Test B pre-/postemergence herbicide test; assay type: in vivo, Digitaria sanguinalis; details: for Crabgrass, Large plant response rating: postemergence, visual rating, scale 0 (no effect) to 100 (complete control)
Method in brief: as §2

giant foxtail = assay: Test B pre-/postemergence herbicide test; assay type: in vivo, Setaria faberi; details: for Foxtail, Giant plant response rating: postemergence, visual rating, scale 0 (no effect) to 100 (complete control)
Method in brief: as §2

lambsquarters = assay: Test B pre-/postemergence herbicide test; assay type: in vivo, Chenopodium album; details: for Lambsquarters plant response rating: postemergence, visual rating, scale 0 (no effect) to 100 (complete control)
Method in brief: as §2

morningglory = assay: Test B pre-/postemergence herbicide test; assay type: in vivo, Ipomoea coccinea; details: for Morningglory plant response rating: postemergence, visual rating, scale 0 (no effect) to 100 (complete control)
Method in brief: as §1

pigweed = assay: Test B pre-/postemergence herbicide test; assay type: in vivo, Amaranthus retroflexus; details: for Pigweed plant response rating: postemergence, visual rating, scale 0 (no effect) to 100 (complete control)
Method in brief: as §2

rice [2] = assay: Test B pre-/postemergence herbicide test; assay type: in vivo, Oryza sativa; details: preemergence
Method in brief: as §1

velvetleaf = assay: Test B pre-/postemergence herbicide test; assay type: in vivo, Abutilon theophrasti; details: for Velvetleaf plant response rating: postemergence, visual rating, scale 0 (no effect) to 100 (complete control)
Method in brief: as §2

blackgrass = assay: Test B postemergence herbicide test; assay type: in vivo, Alopecurus myosuroides; details: postemergence, visual rating, scale 0 (no effect) to 100 (complete control)
Method in brief: (§3)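 Each value is a visual 0–100 response rating taken against controls 13 to 15 days after treatment in the greenhouse. Plants received formulated chemical postemergence at the 1- to 4-leaf stage or, in flooded paddy, at the 2-leaf stage.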

wheat = assay: Test B postemergence herbicide test; assay type: in vivo, Triticum aestivum; set-up: key to Wheat plant response rating: 0 = no effect, 100 = complete control; details: postemergence, visual rating, scale 0 (no effect) to 100 (complete control)
Method in brief: (§4)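 Scale 0–100: zero equals no visible effect, 100 complete control, judged by eye relative to controls. Timing: 13 to 15 days in greenhouse post-treatment. Growth stage at spraying: two leaves (paddy) or one to four leaves, 2–18 cm (postemergence).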

wild oat = assay: Test B postemergence herbicide test; assay type: in vivo, Avena fatua; details: postemergence, visual rating, scale 0 (no effect) to 100 (complete control)
Method in brief: as §4

rice [3] = assay: Test B flooded paddy test; assay type: in vivo, Oryza sativa; details: 1000 g ai/ha, visual rating, scale 0 to 100 (0 no effect, 100 complete control), 13 to 15 days
Method in brief: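 After treating 2-leaf paddy plants or 2–18 cm postemergence plants (1 to 4 leaves) with formulated chemical, researchers kept them in a greenhouse for 13–15 days. Effects were judged visually versus controls: 0 indicates none, 100 total control.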

[4] = tested on: small flower umbrella sedge; assay: Test B flooded paddy test; assay type: in vivo, Cyperus difformis; details: 1000 g ai/ha, visual rating, scale 0 to 100 (0 no effect, 100 complete control), 13 to 15 days
Method in brief: as §3

ducksalad [5] = assay: Test B flooded paddy test; assay type: in vivo, Heteranthera limosa; details: 1000 g ai/ha, visual rating, scale 0 to 100 (0 no effect, 100 complete control), 13 to 15 days
Method in brief: as §3

barnyardgrass [6] = assay: Test B flooded paddy test; assay type: in vivo, Echinochloa crus-galli; details: 1000 g ai/ha, visual rating, scale 0 to 100 (0 no effect, 100 complete control), 13 to 15 days
Method in brief: as §3

rice [7] = assay: Test C flooded paddy test; assay type: in vivo, Oryza sativa
Method in brief: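 Plants were grown to the 1- to 4-leaf stage (2–18 cm) and then treated postemergence, or grown to the 2-leaf stage for the flooded paddy test. They were held in a greenhouse for 12 to 14 days and then scored by eye against controls, where 0 is no effect and 100 is complete control.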

[8] = tested on: smallflower umbrella sedge; assay: Test C flooded paddy test; assay type: in vivo, Cyperus difformis
ducksalad [9] = assay: Test C flooded paddy test; assay type: in vivo, Heteranthera limosa
barnyardgrass [10] = assay: Test C flooded paddy test; assay type: in vivo, Echinochloa crus-galli
Method in brief: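 Scoring by eye, 12–14 days post-treatment, greenhouse-held plants vs. controls; 0 no effect, 100 complete control. Sprayed at 1–4 leaves (2–18 cm); paddy barnyardgrass at 2 leaves, flooded.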

[11] = 125 g ai/ha, 0 = no effect, 100 = complete control, preemergence
[12] = 500 g ai/ha, visual rating 0-100, 0 no effect, 100 complete control, preemergence
[13] = 62 g ai/ha, scale 0 to 100 (0 no effect, 100 complete control)
[14] = 125 g ai/ha, scale 0 to 100 (0 no effect, 100 complete control)
[15] = 250 g ai/ha, scale of 0 to 100, 0 is no effect, 100 is complete control
[16] = 500 g ai/ha, visual rating after 12 to 14 days, scale 0 to 100 (0 no effect, 100 complete control)

SMILES: CCOC(=O)c1cccc(NC(=O)c2cn(C(C)(C)C)nc2CC)c1 [Compound 186]
- Barnyardgrass plant response rating (0 to 100 scale) (barnyardgrass [1]; [11]): 0
- Plant response rating, Barnyardgrass (barnyardgrass [1]; [12]): 10
- Barnyardgrass plant response rating (barnyardgrass [1]; 125 g ai/ha): 10
- Barnyardgrass plant response rating (barnyardgrass [1]; 500 g ai/ha): 50
- Surinam Grass plant response rating (0 to 100 scale) (Surinam grass; [11]): 0
- Plant response rating, Surinam Grass (Surinam grass; [12]): 10
- Surinam Grass plant response rating (Surinam grass; 125 g ai/ha): 10
- Surinam Grass plant response rating (Surinam grass; 500 g ai/ha): 30
- Cocklebur plant response rating (0 to 100 scale) (cocklebur; [11]): 0
- Plant response rating, Cocklebur (cocklebur; [12]): 0
- Cocklebur plant response rating (cocklebur; 125 g ai/ha): 60
- Cocklebur plant response rating (cocklebur; 500 g ai/ha): 90
- Corn plant response rating (0 to 100 scale) (corn; [11]): 0
- Plant response rating, Corn (corn; [12]): 10
- Corn plant response rating (corn; 125 g ai/ha): 20
- Corn plant response rating (corn; 500 g ai/ha): 20
- Crabgrass, Large plant response rating (0 to 100 scale) (large crabgrass; [11]): 0
- Plant response rating, Crabgrass, Large (large crabgrass; [12]): 10
- Crabgrass, Large plant response rating (large crabgrass; 125 g ai/ha): 10
- Crabgrass, Large plant response rating (large crabgrass; 500 g ai/ha): 10
- Foxtail, Giant plant response rating (0 to 100 scale) (giant foxtail; [11]): 0
- Plant response rating, Foxtail, Giant (giant foxtail; [12]): 10
- Foxtail, Giant plant response rating (giant foxtail; 125 g ai/ha): 10
- Foxtail, Giant plant response rating (giant foxtail; 500 g ai/ha): 20
- Lambsquarters plant response rating (0 to 100 scale) (lambsquarters; [11]): 0
- Plant response rating, Lambsquarters (lambsquarters; [12]): 0
- Lambsquarters plant response rating (lambsquarters; 125 g ai/ha): 10
- Lambsquarters plant response rating (lambsquarters; 500 g ai/ha): 30
- Morningglory plant response rating (0 to 100 scale) (morningglory; [11]): 0
- Plant response rating, Morningglory (morningglory; [12]): 0
- Morningglory plant response rating (morningglory; 125 g ai/ha): 20
- Morningglory plant response rating (morningglory; 500 g ai/ha): 30
- Pigweed plant response rating (0 to 100 scale) (pigweed; [11]): 0
- Plant response rating, Pigweed (pigweed; [12]): 0
- Pigweed plant response rating (pigweed; 125 g ai/ha): 60
- Pigweed plant response rating (pigweed; 500 g ai/ha): 60
- Rice plant response rating (0 to 100 scale) (rice [2]; 125 g ai/ha, 0 = no effect, 100 = complete control): 0
- Plant response rating, Rice (rice [2]; 500 g ai/ha, visual rating 0-100, 0 no effect, 100 complete control): 20
- Velvetleaf plant response rating (0 to 100 scale) (velvetleaf; [11]): 10
- Plant response rating, Velvetleaf (velvetleaf; [12]): 20
- Velvetleaf plant response rating (velvetleaf; 125 g ai/ha): 60
- Velvetleaf plant response rating (velvetleaf; 500 g ai/ha): 60
- Blackgrass plant response rating (blackgrass; 125 g ai/ha): 10
- Blackgrass plant response rating (blackgrass; 500 g ai/ha): 30
- Wheat plant response rating (wheat; 125 g ai/ha): 10
- Wheat plant response rating (wheat; 500 g ai/ha): 20
- Oat, Wild plant response rating (wild oat; 125 g ai/ha): 10
- Oat, Wild plant response rating (wild oat; 500 g ai/ha): 20
- Rice plant response rating (rice [3]): 30
- Sedge, Umbrella plant response rating [4]: 90
- Ducksalad plant response rating (ducksalad [5]): 90
- Barnyardgrass plant response rating (barnyardgrass [6]): 30
- Rice plant response rating (rice [7]; [13]): 40
- Rice plant response rating (rice [7]; [14]): 55
- Rice plant response rating (rice [7]; [15]): 60
- Plant response rating, Rice (rice [7]; [16]): 65
- Sedge, Umbrella plant response rating [8, 13]: 80
- Sedge, Umbrella plant response rating [8, 14]: 80
- Sedge, Umbrella plant response rating [8, 15]: 80
- Plant response rating, Sedge, Umbrella [8, 16]: 85
- Ducksalad plant response rating (ducksalad [9]; [13]): 15
- Ducksalad plant response rating (ducksalad [9]; [14]): 40
- Ducksalad plant response rating (ducksalad [9]; [15]): 65
- Plant response rating, Ducksalad (ducksalad [9]; [16]): 80
- Barnyardgrass plant response rating (barnyardgrass [10]; [13]): 20
- Barnyardgrass plant response rating (barnyardgrass [10]; 125 g ai/ha, scale of 0 to 100, 0 is no effect, 100 is complete control): 30
- Barnyardgrass plant response rating (barnyardgrass [10]; [15]): 45
- Plant response rating, Barnyardgrass (barnyardgrass [10]; [16]): 70
